# In patent publication US20230301993A1, “Low-Dose Ophthalmic Compositions and Methods” (priority 2020, published 2023):
# “Also recorded” adds a separate entry of the source.
# What was measured:
# rabbit eye model [1] = assay: Pupillometry: effect of single topical ocular administration on pupillary diameter (miotic effect) in rabbit eye model; assay type: in vivo, Dutch Belted Rabbits
# Method: The following examples were performed to determine which active pharmaceutical agent (API), alone or in combination, could effect upon topical administration an approximate 1-2 mm decrease in pupillary diameter with a desirable (e.g., about 4 h) duration of action. Unless stated otherwise, a rabbit animal model was used for the studies. Phentolamine was used as a positive control (comparator API) and caused an approximately 1 mm decrease in the pupil at 0.5% and 1% with a duration of more than 6 hours.
# Study design: 3 Dutch Belted Rabbits (pigmented breed)/group received a single ocular administration of test articles (one drop per eye) at 3 concentrations (tested one week apart). After a 2-week rest period, combinations were tested. Ocular irritation was assessed using a modified Draize test. Intraocular pressure (IOP) was measured at baseline, 1 h, 4 h, 6 h and 24 hours. Pupillary Diameter was measured at baseline, 15 min, 1 h, 4 h and 6 h after dosing. Due to the variation in pupillary diameter and IOP between rabbits and between eyes within rabbits, the data for pupillary diameter and IOP were normalized and presented with error bars (SD). A change of 15% to 20% approximates a pupillary diameter change of 1 mm. […]
# rabbit eye model [2] = assay: Effect of benzalkonium chloride on the miotic effect of carbachol; assay type: in vivo
# From the text: In still further experiments, the inventors investigated the effect of benzalkonium chloride on the miotic effect of carbachol. To that end, different concentrations of BAC were employed between 0.005% and 0.02% at carbachol concentrations between 0.025% and 0.075%, and the results are shown in FIGS. 6A-6C. […] As BAK is believed to increase permeability of the respective agents across the corneal tissue, addition of BAK at concentrations up to 0.05% may advantageously increase miotic effect at otherwise identical drug concentration. Thus, BAK may enhance the miotic action of brimonidine, rivastigmine, galantamine, and carbachol, which may in turn allow for reduced drug concentrations and/or increased miotic effect without unduly extending the duration of the miotic effect.
compound,measurement,setting,value
"Brc1c(N=C2NCCN2)ccc2nccnc12.O=C(O)C(O)C(O)C(=O)O [Brimonidine, 5-Bromo-6-(2-imidazolidinylideneamino) quinoxaline L-tartrate]",miotic effect on pupillary diameter,"rabbit eye model [1]; at doses tested, rabbit",little to no effect
same,miotic effect on pupillary diameter,"rabbit eye model [1]; doses at or below 0.1%, rabbit (FIG. 2), L-tartrate",some miotic effect; also recorded: moderate effect
same,miotic effect on pupillary diameter,"rabbit eye model [1]; higher doses tested, at or above 0.2%, rabbit (FIG. 2)",little to no effect
"CCN(C)C(=O)Oc1cccc(C(C)N(C)C)c1 (stereo not drawn) [Rivastigmine, N-ethyl-3-[1-dimethylamino)ethyl]-N-methylphenyl carbamate]",decrease in pupil,"rabbit eye model [1]; concentration of about 1%, alone, rabbit",1 mm
same,miotic effect on pupillary diameter (comparison in words),"rabbit eye model [1]; concentration of about 1%, alone, rabbit (FIG. 3A)",substantially similar to phentolamine
"Br.COc1ccc2c3c1O[C@H]1C[C@@H](O)C=C[C@@]31CCN(C)C2 [Galantamine, galantamine]",decrease in pupil,"rabbit eye model [1]; concentration of about 2%, alone, rabbit",1-2 mm
same,duration of reduction in pupillary diameter (lasted at least),"rabbit eye model [1]; high dose (2%), rabbit (FIG. 4A)",at least 1 h
Cc1ccc(N(CC2=NCCN2)c2cccc(O)c2)cc1 [Phentolamine],duration of reduction in pupillary diameter,"rabbit eye model [1]; all doses, topical, rabbit (FIG. 1)",at least 6 h
same,decrease in the pupil,"rabbit eye model [1]; at 0.5% and 1%, topical, one drop per eye, rabbit",approximately 1 mm
C[N+](C)(C)CCOC(N)=O [carbachol],duration of action (miotic effect),"rabbit eye model [1]; carbachol, even at lowest dose (about 0.075%), rabbit",2 to 4 h
same,miotic effect (potency in words),"rabbit eye model [1]; even at the lowest dose / low concentration of about 0.075%, rabbit (FIG. 5)",very potent
"N-Alkyl-N-benzyl-N,N-dimethyl-ammonium chloride [BAC]",effect of BAC on miotic effect of carbachol,"rabbit eye model [2]; BAC 0.005%, at 1 hr, higher carbachol concentration (FIG. 6A)",some effect
same,effect of BAC on miotic effect of carbachol,"rabbit eye model [2]; BAC 0.005%, carbachol 0.025%-0.075% (FIG. 6A)",minimal effect
same,effect of BAC on miotic effect of carbachol,"rabbit eye model [2]; BAC 0.01%, carbachol 0.025%-0.075% (FIG. 6B)",somewhat more pronounced
same,effect of BAC on miotic effect of carbachol,"rabbit eye model [2]; BAC at least 0.02%, carbachol 0.025%-0.075% (FIG. 6C)",significant
